Like-named read-outs stand apart in the source and are kept apart here.
Experiments:
Fmr1 knock-out mice [1] = assay: Nesting / test of daily living in Fmr1 knock-out mice; type: in vivo; parameters: key: X indicates failure to ameliorate the phenotype; Y reversed the phenotype; settings: repeat experiment, 15 days
Protocol: (§1) Fmr1 knock-out mice (n=10) were orally administered 10 mg/kg/day or 100 mg/kg/day belumosudil or vehicle (BID) for 15 days. Control groups included wild type mice and knock out mice with vehicle. Mice treated with 100 mg/kg belumosudil ameliorated the following behavioral phenotypes: open field/hyperactivity, self-grooming/stereotypy, hyponeophagia/anxiety, nesting/test of daily living, 3-chamber social novelty/sociability; resident intruder and fear conditioning.
(§2) The experiment was repeated where knock out mice received belumosudil at 20 mg/kg/day, 60 mg/kg/day and 100 mg/kg/day (BID) for 15 days. One group of knock out mice received 10 mg/kg/day belumosudil in combination with 10 mg/kg/day minocycline for 15 days. Control groups included wild type mice and knock out mice with vehicle. The results are set forth below, where X indicates failure to ameliorate the phenotype and Y reversed the phenotype: […]

Fmr1 knock-out mice [2] = assay: 3-chamber social novelty / sociability in Fmr1 knock-out mice; type: in vivo; parameters: key: X indicates failure to ameliorate the phenotype; Y reversed the phenotype; settings: repeat experiment, 15 days
Protocol: as §1, §2

Fmr1 knock-out mice [3] = assay: Hyponeophagia / anxiety in Fmr1 knock-out mice; type: in vivo; parameters: key: X indicates failure to ameliorate the phenotype; Y reversed the phenotype; settings: repeat experiment, 15 days
Protocol: as §1, §2

Fmr1 knock-out mice [4] = assay: Novel object recognition / cognition in Fmr1 knock-out mice; type: in vivo; parameters: key: X indicates failure to ameliorate the phenotype; Y reversed the phenotype; settings: repeat experiment, 15 days
Protocol: as §1, §2

Fmr1 knock-out mice [5] = assay: Self-grooming / stereotypy in Fmr1 knock-out mice; type: in vivo; parameters: key: X indicates failure to ameliorate the phenotype; Y reversed the phenotype; settings: repeat experiment, 15 days
Protocol: as §1, §2

Fmr1 knock-out mice [6] = assay: Open field / hyperactivity in Fmr1 knock-out mice; type: in vivo; parameters: key: X indicates failure to ameliorate the phenotype; Y reversed the phenotype; settings: repeat experiment, 15 days
Protocol: as §1, §2

Fmr1 knock-out mice [7] = assay: Fear conditioning in Fmr1 knock-out mice; type: in vivo; parameters: key: X indicates failure to ameliorate the phenotype; Y reversed the phenotype; settings: repeat experiment, 15 days
Protocol: as §1, §2

Fmr1 knock-out mice [8] = assay: Resident intruder in Fmr1 knock-out mice; type: in vivo; parameters: key: X indicates failure to ameliorate the phenotype; Y reversed the phenotype; settings: repeat experiment, 15 days
Protocol: as §1, §2

[9] = cited from earlier work
[10] = belumosudil 100 mg/kg/day (BID)

CC(C)NC(=O)COc1cccc(-c2nc(Nc3ccc4[nH]ncc4c3)c3ccccc3n2)c1 [belumosudil]
Nesting: Test of Daily Living (Fmr1 knock-out mice [1]; belumosudil 20 mg/kg/day (BID)): Y
Nesting: Test of Daily Living (Fmr1 knock-out mice [1]; belumosudil 60 mg/kg/day (BID)): Y
Nesting: Test of Daily Living (Fmr1 knock-out mice [1]; [10]): Y
3 Chamber Social Novelty: Sociability (Fmr1 knock-out mice [2]; belumosudil 20 mg/kg/day (BID)): X
3 Chamber Social Novelty: Sociability (Fmr1 knock-out mice [2]; belumosudil 60 mg/kg/day (BID)): X
3 Chamber Social Novelty: Sociability (Fmr1 knock-out mice [2]; [10]): Y
Hyponeophagia: Anxiety (Fmr1 knock-out mice [3]; belumosudil 20 mg/kg/day (BID)): X
Hyponeophagia: Anxiety (Fmr1 knock-out mice [3]; belumosudil 60 mg/kg/day (BID)): X
Hyponeophagia: Anxiety (Fmr1 knock-out mice [3]; [10]): Y
Novel Object Recognition: Cognition (Fmr1 knock-out mice [4]; belumosudil 20 mg/kg/day (BID)): X
Novel Object Recognition: Cognition (Fmr1 knock-out mice [4]; belumosudil 60 mg/kg/day (BID)): X
Novel Object Recognition: Cognition (Fmr1 knock-out mice [4]; [10]): X
Self-Grooming: Stereotypy (Fmr1 knock-out mice [5]; belumosudil 20 mg/kg/day (BID)): X
Self-Grooming: Stereotypy (Fmr1 knock-out mice [5]; belumosudil 60 mg/kg/day (BID)): X
Self-Grooming: Stereotypy (Fmr1 knock-out mice [5]; [10]): Y
Open Field: Hyperactivity (Fmr1 knock-out mice [6]; belumosudil 20 mg/kg/day (BID)): X
Open Field: Hyperactivity (Fmr1 knock-out mice [6]; belumosudil 60 mg/kg/day (BID)): X
Open Field: Hyperactivity (Fmr1 knock-out mice [6]; [10]): Y
Fear Conditioning (Fmr1 knock-out mice [7]; belumosudil 20 mg/kg/day (BID)): X
Fear Conditioning (Fmr1 knock-out mice [7]; belumosudil 60 mg/kg/day (BID)): Y
Fear Conditioning (Fmr1 knock-out mice [7]; [10]): Y
Resident Intruder (Fmr1 knock-out mice [8]; belumosudil 20 mg/kg/day (BID)): X
Resident Intruder (Fmr1 knock-out mice [8]; belumosudil 60 mg/kg/day (BID)): Y
Resident Intruder (Fmr1 knock-out mice [8]; [10]): Y
AE: cough ([9]; 200 mg once daily (QD) arm): 18
AE: diarrhea ([9]; 200 mg once daily (QD) arm): 24%
AE: dyspnea ([9]; 200 mg once daily (QD) arm): 20%
AE: edema ([9]; 200 mg once daily (QD) arm): 24%
AE: fatigue ([9]; 200 mg once daily (QD) arm): 30%
AE: liver related investigations ([9]; 200 mg once daily (QD) arm): 20%
AE: nausea ([9]; 200 mg once daily (QD) arm): 23%
Serious AE: nausea ([9]; 200 mg once daily (QD) arm): 3%
Serious AE: pneumonia ([9]; 200 mg once daily (QD) arm): 3%
Serious AE: pyrexia ([9]; 200 mg once daily (QD) arm): 5%
Serious AE: vomiting ([9]; 200 mg once daily (QD) arm): 3%
AE: cough ([9]; 200 mg twice daily (BID) arm): 14%
AE: diarrhea ([9]; 200 mg twice daily (BID) arm): 18%
AE: dyspnea ([9]; 200 mg twice daily (BID) arm): 12%
AE: edema ([9]; 200 mg twice daily (BID) arm): 15%
AE: fatigue ([9]; 200 mg twice daily (BID) arm): 18%
AE: liver related investigations ([9]; 200 mg twice daily (BID) arm): 23%
AE: nausea ([9]; 200 mg twice daily (BID) arm): 20%
Serious AE: nausea ([9]; 200 mg twice daily (BID) arm): 2%
Serious AE: pneumonia ([9]; 200 mg twice daily (BID) arm): 3%
Serious AE: pyrexia ([9]; 200 mg twice daily (BID) arm): 0
Serious AE: vomiting ([9]; 200 mg twice daily (BID) arm): 2%
safety and efficacy in clinical trial ([9]; 132 patients, 200 mg QD or 200 mg BID): safe and efficacious

— patent US20240342175A1, “Compositions and Methods for Treating Spinal Cord Injury and Synaptic Dysfunction” (priority 2021, published 2024)
